This is an account of results in PubChem BioAssay (NCI).

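Cells were grown in 96-well plates and exposed to each compound for 48 hours at five concentrations; endpoints were interpolated linearly between bracketing concentrations, or set to the highest concentration if not reached. Here, GI50 denotes the concentration required for 50% inhibition of growth. Definition used: TGI = concentration required for complete inhibition of growth.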

Common to all, as to test: NCI tumour cell line growth inhibition, 48 h
Assay [1] has as its system A549 NSCLC.
The test system of assay [2] is NCI-H460 lung.
Assay [3] has as its system HS 578T breast.
The test system of assay [4] is ACHN renal.
For assay [5], the system named is SK-MEL-2 melanoma.
Assay [6] concerns BT-549 breast.
Assay [7] relates to LOX IMVI melanoma.
For assay [8], the system named is NCI/ADR-RES ovarian.
Assay [9] deals with SNB-19 CNS.
The test system of assay [10] is RXF 393 renal.

`O=[N+]([O-])/C=C/c1cc2ccccc2[nH]1`: the TGI worked out at 42.7 µM in assay [1]; 30.4 µM in [2]; 50 µM in [3]; 31.1 µM in assay [4]; 34.6 µM in assay [5]; 29.5 µM in assay [6]. Also, the TGI in assay [7] worked out at 29.5 µM; in assay [8], 98.2 µM; in assay [9], 34.7 µM; in [10], 26.6 µM.

In the case of `CCn1cc(-c2ccnc3[nH]ccc23)c(-c2cccc(NC(=O)Nc3ccc(OCc4ccccc4)cc3)c2)n1`, the GI50 in assay [1] was 2.85 µM; in [2], 7.45 µM; in [3], 4.85 µM; in assay [4] it was 15.2 µM; in [5], 8.14 µM; in assay [6], over 21.9 µM. Also, the GI50 in assay [7] is 6.01 µM; in assay [8], over 25 µM; in [9], over 23.9 µM; in assay [10], 1.28 µM. Further, the TGI in [1], in [2], in assay [3], in [4], in [5] and in assay [6] was over 25 µM in each case. Moreover, the TGI in assay [7] is over 25 µM; in assay [8], over 25 µM; in [9], over 25 µM; in assay [10], 7.88 µM.

`CN1CCN(c2cc(C(=O)Nc3cc4cc(-c5cnn(C)c5)ccc4cn3)ccn2)CC1`: the GI50 is 0.0432 µM in assay [1]; 0.121 µM in [2]; 0.276 µM in [3]; 0.0597 µM in assay [4]; 0.113 µM in assay [5]; 0.0781 µM in assay [6]. For the same compound, the GI50 in assay [7] was 0.0933 µM; in [8], 0.246 µM; in assay [9], 0.121 µM; in [10] it was 0.258 µM. Also, the TGI in [1] was determined as 11.4 µM; in [2], 11.7 µM; in assay [3], 6.18 µM; in assay [4] it was 0.548 µM; in assay [5] it was 0.364 µM; in assay [6] it was 0.838 µM. Besides, the TGI in assay [7] is 0.262 µM; in [8] it was 76.4 µM; in assay [9] it was 12 µM; in assay [10] it was 0.724 µM.

In the case of `CN1CCN(c2ccc(Nc3nc(N)c(C(=O)c4ccc5c(c4)OCCO5)s3)cc2)CC1`, the GI50 in assay [1] is 4.3 µM; in assay [2] it was 2.85 µM; in [3], 2.32 µM; in assay [4], 1.85 µM; in assay [5], 4.77 µM; in assay [6], 4.71 µM. Besides, the GI50 in assay [7] is 3.2 µM; in assay [8], 7.54 µM; in [9], 4.14 µM; in assay [10], 1.71 µM. Moreover, the TGI came out at 15.7 µM in assay [1]; 9.75 µM in assay [2]; 12.2 µM in [3]; 6.57 µM in [4]; 15.2 µM in assay [5]; 9.46 µM in [6]. The TGI in assay [7] is 7.21 µM; in assay [8], over 25 µM; in assay [9] it was 24.3 µM; in [10] it was 5.71 µM.

With `C[C@@H]1Cc2c([nH]c3ccccc23)[C@@H](c2c(F)cc(NC3CN(CCCF)C3)cc2F)N1CC(F)(F)CO`, the GI50 in [1] is 9.91 µM; in assay [2], 5.19 µM; in assay [3], 3.73 µM; in assay [4], 4.8 µM; in assay [5], 4.37 µM; in assay [6], 2.05 µM. Also, the GI50 in [7] is 1.75 µM; in assay [8] it was 4.1 µM; in [9], 10.3 µM; in assay [10] it was 4.38 µM. For the same compound, the TGI in assay [1] was 28.7 µM; in assay [2], 19.2 µM; in assay [3], 19.1 µM; in assay [4] it was 17.1 µM; in assay [5], 16.5 µM; in assay [6] it was 4.04 µM. Further, the TGI turned out to be 3.49 µM in [7], 16.6 µM in assay [8], 23.6 µM in assay [9] and 17 µM in assay [10].

On to `C=C1c2[nH]c3ccccc3c2C2C(CC)C1CCN2C` (stereo not given), for which the TGI in assay [1], in assay [2], in [3], in [4], in assay [5] and in assay [6] was over 100 µM in each case. For the same compound, the TGI in assay [7], in assay [8], in assay [9] and in assay [10] was over 100 µM each time.

`COC1=CC(=O)C(OC)=C(OC)C1=O`: the GI50 is 49.5 µM in assay [1]; 77 µM in assay [2]; 28 µM in assay [3]; 12.8 µM in [4]; 9.98 µM in assay [5]; 16.7 µM in [6]. In addition, the GI50 in assay [7] is 12 µM; in assay [8] it was 17.5 µM; in [9] it was 21.5 µM; in assay [10], 17.1 µM. Besides, the TGI in [1] is over 100 µM; in [2], over 100 µM; in assay [3], over 100 µM; in [4] it was 25.3 µM; in assay [5], 33.1 µM; in assay [6] it was 30.4 µM. Besides, the TGI in [7] came out at 25.1 µM; in assay [8], 36.6 µM; in [9], 52.8 µM; in assay [10] it was 30.9 µM.

On to `Nc1ccccc1NC(=O)c1ccc(CCCC(=O)Nc2ccc(C3CC3N)cc2)cc1` (stereo not given), for which the GI50 in [1] is 4.38 µM; in assay [2], 2.63 µM; in assay [3] it was 2.82 µM; in assay [4], 4.3 µM; in [5], 1.55 µM; in assay [6], 3.09 µM. Moreover, the GI50 in assay [7] is 1.45 µM; in [8] it was 45.7 µM; in [9], 3.81 µM; in assay [10] it was 1.65 µM. In addition, the TGI in assay [1] is over 100 µM; in assay [2] it was over 100 µM; in assay [3] it was over 100 µM; in [4] it was 33.5 µM; in [5] it was 7.26 µM; in assay [6], 37.9 µM. Besides, the TGI in assay [7] was 3.47 µM; in assay [8], over 100 µM; in [9], over 100 µM; in assay [10] it was 4.1 µM.

For `S=C(Nc1ccc(Cl)cc1)Nc1ccc(-c2nc3ccccc3o2)cc1`, the GI50 in assay [1] is 24.3 µM; in [2], 17.4 µM; in [3], 21.2 µM; in assay [4], 17.3 µM; in assay [5] it was 24.2 µM; in [6], 22.2 µM. The GI50 is 11.7 µM in [7], 21.8 µM in assay [8], 25.6 µM in [9] and 10.9 µM in [10]. Further, the TGI in assay [1] is 92.6 µM; in assay [2], 58.3 µM; in [3], 79.2 µM; in [4], 35.8 µM; in assay [5], 51.2 µM; in assay [6], 60.7 µM. Moreover, the TGI was 26.3 µM in assay [7], 58.7 µM in assay [8], over 100 µM in [9] and 30.7 µM in [10].

Regarding `CC(=O)N1c2ccccc2NC2=C(C(=O)N(Cc3ccccc3)C2(C)C)C1c1ccco1` (stereo not given), the GI50 is 1.03 µM in assay [1]; 0.145 µM in assay [2]; 0.976 µM in assay [3]; 1.35 µM in assay [4]; 1.03 µM in assay [5]; 8.66 µM in assay [6]. In addition, the GI50 in assay [7] was 1.01 µM; in [8], over 21.6 µM; in assay [9] it was 0.524 µM; in assay [10], 0.599 µM. Also, the TGI in [1] is over 25 µM; in assay [2], over 21.2 µM; in [3] it was over 21.9 µM; in assay [4], over 25 µM; in [5], over 25 µM; in [6] it was over 25 µM. In addition, the TGI in [7] is over 25 µM; in [8], over 25 µM; in assay [9], over 25 µM; in [10], 1.87 µM.

Consider `Fc1ccc(-c2ncn(C3CCNCC3)c2-c2ccnc(Oc3ccc(F)c(F)c3)n2)cc1`, for which the GI50 was 9.39 µM in assay [1]; 5.42 µM in [2]; 9.58 µM in assay [3]; 9.9 µM in [4]; 6.84 µM in assay [5]; 12.1 µM in [6]. The GI50 is 4.29 µM in assay [7], 8.83 µM in assay [8], 12.2 µM in assay [9] and 3.15 µM in assay [10]. Moreover, the TGI in assay [1] is over 19.4 µM; in [2], 13.1 µM; in [3] it was over 18.4 µM; in assay [4] it was over 25 µM; in [5] it was 14.5 µM; in assay [6], over 25 µM. Also, the TGI is 9.14 µM in assay [7], over 25 µM in assay [8], over 25 µM in assay [9] and 6.48 µM in assay [10].
